The values below come from patent publication US6348477B1, “Anti-herpesvirus compounds and methods for identifying, making and using same” (Boehringer Ingelheim(Canada) Ltd., priority 1995, dated 2002).

Broadly, the melting point is the temperature of the solid-liquid transition.

The test system of one data set is Hs-68 cells. Put plainly: Cytotoxicity noted in the CMV assays (table footnote). Type of data set: cell-based. The note with it: Group 1 Table 1. As for the experimental part: Hs-68 cells (ATCC # CRL 1635) were seeded in 96 well microtiter plates at 10,000 cells/well in 100 μL of DMEM medium (Gibco Canada Inc.) supplemented with 10% fetal bovine serum (FBS, Gibco Canada Inc.). The plates were incubated for 3 days at 37° to allow the cells to reach 80-90% confluency prior to the assay.
Hs-68 cells ( ATCC # CRL 1635) were seeded in 12-well plates at 83,000 cells/well in 1 mL of DMEM medium (Gibco Canada Inc.) supplemented with 10% fetal bovine serum (FBS, Gibco Canada Inc.). The plates were incubated for 3 days at 37° to allow the cells to reach 80-90% confluency prior to the assay.

Marks after values point to notes of the source that are not given here.

The compound `Nc1nc(-c2ccc(NC(=O)[C@H]3CCC(=O)N3Cc3ccccc3)cc2)cs1` [Example 12, N-{4-(2-Amino-4-thiazolyl)phenyl}-5-oxo-1-(phenylmethyl)-2(R)-pyrrolidinecarboxamide] displayed a melting point of 245 to 246 °C. The same measure, in the same setting: under `CCCCN(CCCC)C(=O)C(=O)Nc1ccc(-c2csc(N)n2)cc1` [Example 4, N-{4-(2-Amino-4-thiazolyl)phenyl}-N′,N′-dibutylethanediamide] stands 178 to 179 °C. Same read-out and setting: under `CC(C)(C)OC(=O)N1CCC[C@H]1C(=O)Nc1ccc(-c2csc(N)n2)cc1` [Example 13, tert-Butyl 2(S)-{{{4-(2-Amino-4-thiazolyl)phenyl}-amino}carbonyl}-1-pyrrolidinecarboxylate] stands 238 to 239 °C; under `Nc1nc(-c2ccc(NC(=O)[C@@H]3CCCN3C(=O)c3ccccc3)cc2)cs1` [Example 14, N-{4-(2-Amino-4-thiazolyl)phenyl}1-benzoyl-2(S)-pyrrolidinecarboxamide], 132 to 133 °C. As to `CCCC(CCC)N(CC(=O)Nc1ccc(-c2csc(N)n2)cc1)C(=O)C1CCCCC1` [Example 82], the “Cytotoxic at this concentration” value in the data set with Hs-68 cells (asterisk in PRA CMV) is recorded as 7* μM. With `NC(=O)N(Cc1ccc(F)cc1)c1ccc(-c2csc(N)n2)cc1` [Example 2, N-{4-(2-Amino-4-thiazolyl)phenyl}-N-{(4-fluorophenyl)methyl}urea], the melting point lay within 227 to 230 °C. Turning to `CCCC(CCC)N(CC(=O)Nc1ccc(-c2csc(N)n2)cc1)C(=O)OC(C)(C)C` [Example 111], the “Cytotoxic at this concentration” value in the data set on Hs-68 cells (asterisk in ELISA CMV column) is 4.0* μM. In the case of `CN(C(=O)CNCc1ccccc1)c1ccc(-c2csc(N)n2)cc1` [Example 10, N-{4-(2-Amino-4-thiazolyl)phenyl}-N-methyl-2-{(phenylmethyl)amino)acetamide], the melting point fell in the range of 160 to 162 °C. With `Cc1ccccc1CN(CC(=O)Nc1ccc(-c2csc(N)n2)cc1)C(=O)Cc1ccccn1` [Example 127], in the data set with Hs-68 cells (asterisk in PRA CMV), the “Cytotoxic at this concentration” value is given as 25* μM. As for `CC(C)(C)OC(=O)N[C@@H](Cc1ccccc1)C(=O)Nc1ccc(-c2csc(N)n2)cc1` [Example 11, tert-Butyl N-{2-{{4-(2-Amino-4-thiazolyl)phenyl}-amino}-2-oxo-1(S)-(phenylmethyl)ethyl}carbamate], the melting point lay within 183 to 185 °C.

For `Nc1nc(-c2ccc(NC(=O)CN(Cc3ccccc3)S(=O)(=O)N3CCOCC3)cc2)cs1` [Example 7, N-{4-(2-Amino-4-thiazolyl)phenyl}-2-{(4-morpholinylsulfonyl)(phenylmethyl)amino}acetamide], the melting point was 193 to 194 °C. Still for that read-out and setting: in the case of `Nc1nc(-c2ccc(NC(=O)CNCc3ccccc3)cc2)cs1` [Example 2, N-{4-(2-Amino-4-thiazolyl)phenyl}-2-{(phenylmethyl)-amino}acetamide] it was 162 to 163 °C; in that of `Nc1nc(-c2ccc(NC(=O)[C@@H]3CCCN3Cc3ccccc3)cc2)cs1` [Example 15, N-{4-(2-Amino-4-thiazolyl)phenyl}-1-(phenylmethyl)-2(S)-pyrrolidinecarboxamide], 207 to 209 °C; in that of `Nc1nc(-c2ccc(NC(=O)CN(Cc3ccccc3)C(=O)N3CCOCC3)cc2)cs1` [Example 6, N-{2-{{4-(2-Amino-4-thiazolyl)phenyl}amino}-2-oxoethyl}-N-(phenylmethyl)-4-morpholinecarboxamide], 105 °C (dec.). With `Nc1nc(-c2ccc(NC(=O)CN(Cc3ccccc3)C(=O)Cc3cccnc3)cc2)cs1` [Example 113], the “Cytotoxic at this concentration” value in the data set on Hs-68 cells (asterisk in PRA CMV) is recorded as >50* μM.

On to `CCC(CC)C(=O)N(CC(=O)Nc1ccc(-c2csc(N)n2)cc1)Cc1ccccc1` [Example 104], for which the “Cytotoxic at this concentration” value in the data set with Hs-68 cells (asterisk in PRA CMV) was >18* μM.

In turn, `Nc1nc(-c2ccc(NC(=O)CN(Cc3ccccc3)C(=O)C3CCCCC3)cc2)cs1` [Example 4, N-{2-{{4-(2-Amino-4-thiazolyl)phenyl)amino}-2-oxoethyl}-N-(phenylmethyl)cyclohexanecarboxamide] yielded a melting point of 214.5 to 215.5 °C. On to `Nc1nc(-c2ccc(NC(=O)CN(CC3CCCCC3)C(=O)C3CCCC3)cc2)cs1` [Example 63], for which the “Cytotoxic at this concentration” value with Hs-68 cells (asterisk in PRA CMV) is >21* μM.
